Test results taken from PubChem BioAssay (NCI).
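Test compounds were applied to cells in 96-well plates for 48 hours at 5 doses. TGI denotes the concentration required for complete inhibition of growth.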

Assays:
Experiment in all cases: NCI-60 cell line screen, 48 h
A498 renal = tested on: A498 renal
SW-620 colon = tested on: SW-620 colon
EKVX NSCLC = tested on: EKVX NSCLC
BT-549 breast = tested on: BT-549 breast
HCT-15 colon = tested on: HCT-15 colon
UACC-257 melanoma = tested on: UACC-257 melanoma
HS 578T breast = tested on: HS 578T breast
K-562 leukemia = tested on: K-562 leukemia
SF-295 CNS = tested on: SF-295 CNS
KM12 colon = tested on: KM12 colon
UO-31 renal = tested on: UO-31 renal
786-0 renal = tested on: 786-0 renal
SK-OV-3 ovarian = tested on: SK-OV-3 ovarian
PC-3 prostate = tested on: PC-3 prostate
T-47D breast = tested on: T-47D breast
ACHN renal = tested on: ACHN renal
CAKI-1 renal = tested on: CAKI-1 renal
MALME-3M melanoma = tested on: MALME-3M melanoma
MDA-MB-435 = tested on: MDA-MB-435
COLO 205 colon = tested on: COLO 205 colon
NCI-H226 lung = tested on: NCI-H226 lung
SNB-75 CNS = tested on: SNB-75 CNS
SNB-19 CNS = tested on: SNB-19 CNS
IGROV1 ovarian = tested on: IGROV1 ovarian
OVCAR-8 ovarian = tested on: OVCAR-8 ovarian
RPMI-8226 leukemia = tested on: RPMI-8226 leukemia
SF-539 CNS = tested on: SF-539 CNS
OVCAR-4 ovarian = tested on: OVCAR-4 ovarian
MDA-N = tested on: MDA-N
NCI-H522 lung = tested on: NCI-H522 lung
CCRF-CEM leukemia = tested on: CCRF-CEM leukemia
U251 CNS = tested on: U251 CNS
NCI-H460 lung = tested on: NCI-H460 lung
UACC-62 melanoma = tested on: UACC-62 melanoma
MCF7 breast = tested on: MCF7 breast
NCI/ADR-RES ovarian = tested on: NCI/ADR-RES ovarian
HOP-92 NSCLC = tested on: HOP-92 NSCLC
M14 melanoma = tested on: M14 melanoma
SR leukemia = tested on: SR leukemia
SK-MEL-5 melanoma = tested on: SK-MEL-5 melanoma
HCC-2998 colon = tested on: HCC-2998 colon
HOP-62 NSCLC = tested on: HOP-62 NSCLC
HCT-116 colon = tested on: HCT-116 colon
SK-MEL-2 melanoma = tested on: SK-MEL-2 melanoma
A549 NSCLC = tested on: A549 NSCLC
NCI-H23 lung = tested on: NCI-H23 lung
OVCAR-5 ovarian = tested on: OVCAR-5 ovarian
OVCAR-3 ovarian = tested on: OVCAR-3 ovarian
MDA-MB-231 breast = tested on: MDA-MB-231 breast
RXF 393 renal = tested on: RXF 393 renal
SF-268 CNS = tested on: SF-268 CNS
MOLT-4 leukemia = tested on: MOLT-4 leukemia
LOX IMVI melanoma = tested on: LOX IMVI melanoma
TK-10 renal = tested on: TK-10 renal
SK-MEL-28 melanoma = tested on: SK-MEL-28 melanoma
DU-145 prostate = tested on: DU-145 prostate
SN12C renal = tested on: SN12C renal
HT29 colon = tested on: HT29 colon

Structure (SMILES): O=c1[nH]c(=O)n(C2CC(O)C(CO)O2)c2nc3cc4ccccc4cc3nc12 (centres undefined)
- TGI (A498 renal): > 100 µM
- TGI (SW-620 colon): > 100 µM
- TGI (EKVX NSCLC): > 100 µM
- TGI (BT-549 breast): > 100 µM
- TGI (HCT-15 colon): > 100 µM
- TGI (UACC-257 melanoma): > 100 µM
- TGI (HS 578T breast): > 100 µM
- TGI (K-562 leukemia): > 100 µM
- TGI (SF-295 CNS): > 100 µM
- TGI (KM12 colon): > 100 µM
- TGI (UO-31 renal): > 100 µM
- TGI (786-0 renal): > 100 µM
- TGI (SK-OV-3 ovarian): > 100 µM
- TGI (PC-3 prostate): > 100 µM
- TGI (T-47D breast): > 100 µM
- TGI (ACHN renal): > 100 µM
- TGI (CAKI-1 renal): > 100 µM
- TGI (MALME-3M melanoma): > 100 µM
- TGI (MDA-MB-435): > 100 µM
- TGI (COLO 205 colon): > 100 µM
- TGI (NCI-H226 lung): > 100 µM
- TGI (SNB-75 CNS): > 100 µM
- TGI (SNB-19 CNS): > 100 µM
- TGI (IGROV1 ovarian): > 100 µM
- TGI (OVCAR-8 ovarian): > 100 µM
- TGI (RPMI-8226 leukemia): > 100 µM
- TGI (SF-539 CNS): > 100 µM
- TGI (OVCAR-4 ovarian): > 100 µM
- TGI (MDA-N): > 100 µM
- TGI (NCI-H522 lung): > 100 µM
- TGI (CCRF-CEM leukemia): > 100 µM
- TGI (U251 CNS): > 100 µM
- TGI (NCI-H460 lung): > 100 µM
- TGI (UACC-62 melanoma): > 100 µM
- TGI (MCF7 breast): > 100 µM
- TGI (NCI/ADR-RES ovarian): > 100 µM
- TGI (HOP-92 NSCLC): > 100 µM
- TGI (M14 melanoma): > 100 µM
- TGI (SR leukemia): > 100 µM
- TGI (SK-MEL-5 melanoma): > 100 µM
- TGI (HCC-2998 colon): > 100 µM
- TGI (HOP-62 NSCLC): > 100 µM
- TGI (HCT-116 colon): > 100 µM
- TGI (SK-MEL-2 melanoma): > 100 µM
- TGI (A549 NSCLC): > 100 µM
- TGI (NCI-H23 lung): > 100 µM
- TGI (OVCAR-5 ovarian): > 100 µM
- TGI (OVCAR-3 ovarian): > 100 µM
- TGI (MDA-MB-231 breast): > 100 µM
- TGI (RXF 393 renal): > 100 µM
- TGI (SF-268 CNS): > 100 µM
- TGI (MOLT-4 leukemia): > 100 µM
- TGI (LOX IMVI melanoma): > 100 µM
- TGI (TK-10 renal): > 100 µM
- TGI (SK-MEL-28 melanoma): > 100 µM
- TGI (DU-145 prostate): > 100 µM
- TGI (SN12C renal): > 100 µM

Structure (SMILES): Oc1ccc2ccccc2c1CN(Cc1c(O)ccc2ccccc12)C1CCCCC1
- TGI (A498 renal): 71.6 µM
- TGI (SW-620 colon): 48.9 µM
- TGI (EKVX NSCLC): 29.7 µM
- TGI (BT-549 breast): 42.7 µM
- TGI (HCT-15 colon): 45.4 µM
- TGI (UACC-257 melanoma): 28.7 µM
- TGI (HS 578T breast): 79 µM
- TGI (K-562 leukemia): 53.5 µM
- TGI (SF-295 CNS): > 100 µM
- TGI (KM12 colon): > 100 µM
- TGI (UO-31 renal): 38.1 µM
- TGI (786-0 renal): 30.7 µM
- TGI (HT29 colon): 39.6 µM
- TGI (SK-OV-3 ovarian): > 100 µM
- TGI (PC-3 prostate): 38.2 µM
- TGI (T-47D breast): > 100 µM
- TGI (ACHN renal): 34.7 µM
- TGI (CAKI-1 renal): 33.6 µM
- TGI (MALME-3M melanoma): 29.2 µM
- TGI (MDA-MB-435): 43.6 µM
- TGI (COLO 205 colon): 29.6 µM
- TGI (SNB-75 CNS): 50.5 µM
- TGI (SNB-19 CNS): 90.2 µM
- TGI (IGROV1 ovarian): 27.6 µM
- TGI (OVCAR-8 ovarian): 44.6 µM
- TGI (RPMI-8226 leukemia): 97.2 µM
- TGI (SF-539 CNS): 29.4 µM
- TGI (OVCAR-4 ovarian): 47.1 µM
- TGI (MDA-N): 28.7 µM
- TGI (NCI-H522 lung): 27.1 µM
- TGI (CCRF-CEM leukemia): > 100 µM
- TGI (U251 CNS): 45.2 µM
- TGI (NCI-H460 lung): 51 µM
- TGI (UACC-62 melanoma): 32.9 µM
- TGI (MCF7 breast): 29.3 µM
- TGI (NCI/ADR-RES ovarian): 54.9 µM
- TGI (HOP-92 NSCLC): 37.1 µM
- TGI (M14 melanoma): 31.3 µM
- TGI (SR leukemia): 83.9 µM
- TGI (SK-MEL-5 melanoma): 28.1 µM
- TGI (HCC-2998 colon): 27.7 µM
- TGI (HOP-62 NSCLC): > 100 µM
- TGI (HCT-116 colon): 29.3 µM
- TGI (SK-MEL-2 melanoma): 67.1 µM
- TGI (A549 NSCLC): 44.4 µM
- TGI (NCI-H23 lung): 31.5 µM
- TGI (OVCAR-5 ovarian): > 100 µM
- TGI (OVCAR-3 ovarian): 41.7 µM
- TGI (MDA-MB-231 breast): 44.1 µM
- TGI (RXF 393 renal): 46.7 µM
- TGI (SF-268 CNS): 27 µM
- TGI (MOLT-4 leukemia): 41.4 µM
- TGI (LOX IMVI melanoma): 28.2 µM
- TGI (TK-10 renal): 36.9 µM
- TGI (SK-MEL-28 melanoma): 51.9 µM
- TGI (DU-145 prostate): 42.8 µM
- TGI (SN12C renal): 28 µM
